Results as given in article PMC11891075, “TRIM66-HP1γ remodels the chromatin through phase separation” (Biophysics Reports, 2025).
Each block holds one molecule with its values, some of them ahead of it. Residues, ends and D or L forms follow the SMILES beside them.

How the values were obtained:
[1] = test system: condensates formed by mEGFP-TRIM66 and mCherry-HP1γ in U2OS cells; assay: Live-cell imaging of condensates before and after 1,6-hexanediol; type: cell-based; details: 10% 1,6-hexanediol for 5 min, 10 independent fields from one cell dish
Description: U2OS cells and HeLa cells were cultured in high-glucose DMEM supplemented with 10% fetal bovine serum and 1% penicillin-streptomycin at 37 °C in a humidified incubator containing 5% CO2. Following the manufacturer's instructions, cells were transfected with plasmid DNA using Lipofectamine 3000 (Thermo Fisher Scientific).
Genes encoding human TRIM66 or its constructs were cloned into the pmEGFP-C3 (Clontech) vector with an N-terminal mEGFP tag or the Flag vector with an N-terminal Flag tag. Genes encoding human HP1γ or HP1γ^L172A/W174A were cloned into the pcDNA3.1 vector with an N-terminal mCherry tag.
U2OS cells were cultured on 35-mm glass bottom dishes (Wuxi NEST Biotechnology Co., Ltd) coated with poly-D-lysine (Sigma-Aldrich). L-15 medium without phenol red (Thermo Fisher Scientific) was used during live-cell imaging to maintain a suitable environment for cell growth, and the temperature was kept at approximately 37 °C. Images were obtained with a Nikon Ti fluorescent inverted microscope with a 100× 1.4 NA objective; an XY Piezo Z stage (Applied Scientific Instrumentation); a spinning disk confocal unit (Yokogawa); and an electron multiplier CCD camera (Andor) controlled by IQ3 live-cell imaging software (Andor). Images collected with this system were 16-bit and consisted of 512 × 512 pixels, and the pixel size was 0.12 μm.

[2] = molecular target: HP1γ chromo shadow domain (CSD), residues 110-176 (human) (UniProt Q13185); assay: ITC; MicroCal PEAQ-ITC, 20 °C, Buffer B (20 mmol/L Tris-HCl, 150 mmol/L NaCl, pH 7.5); TRIM66 peptide titrated into HP1γ-CSD
Chain of HP1γ chromo shadow domain (CSD), residues 110-176 (human) (Q13185 110-176): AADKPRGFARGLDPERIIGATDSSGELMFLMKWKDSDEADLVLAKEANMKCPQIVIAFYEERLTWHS

[3] = molecular target: T1, HP1γ-CSD (WT) (Homo sapiens, UniProt Q13185); assay: Isothermal titration calorimetry (ITC), HP1γ-CSD wild type; type: binding; details: 20 °C, 20 mmol/L Tris-HCl, 150 mmol/L NaCl, pH 7.5, Fig. 2F
T1 construct: HP1γ CSD (110–176aa) and TRIM66 PxVxL motif peptide(856–868aa), mixed at a molar ratio of 1:1.2; made in house
T1 sequence (Q13185 110-176): as above
Description: (§1) HP1γ_CSD (residues 110–176) was amplified by PCR from the human brain cDNA library and cloned into the pET-28a(+) expression vector (Novagen), contained an N-terminal 6× His tag and a tobacco etch virus (TEV) protease cleavage site. All mutants of HP1 were generated using a MutantBEST kit (Takara) and confirmed by DNA sequencing. All the proteins were expressed in Escherichia coli BL21 (DE3) cells (Novagen) cultured in LB medium at 37 °C to OD600 = 0.8, then shifted to 16 °C and induced with 0.5 mmol/L isopropyl β-D-1-thiogakactopyranoside (IPTG) for 24 h. Bacterial pellets were resuspended in Buffer A (20 mmol/L Tris-HCl, 500 mmol/L NaCl, pH 7.5) and lysed by sonication on ice. Then, soluble proteins were purified with a Ni^2+-chelating column (Cytiva Life Sciences) and a Superdex 75 column (Cytiva Life Sciences). After being cleaved by TEV protease overnight at 4 °C to remove the 6× His tag, the purified protein was concentrated to ∼10 mg/mL in Buffer B (20 mmol/L Tris-HCl, 150 mmol/L NaCl, pH 7.5) and stored at –80 °C. […]
(§2) Isothermal titration calorimetry (ITC) assays were performed using a MicroCal PEAQ-ITC calorimeter (Cytiva Life Sciences), and all experiments were carried out at 20 °C. […] The concentrations of the proteins were determined spectrophotometrically. […]

[4] = molecular target: T2, HP1γ-CSD^R171A (Homo sapiens, UniProt Q13185, R171A); assay: ITC, HP1γ-CSD R171A mutant; type: binding; details: 20 °C, 20 mmol/L Tris-HCl, 150 mmol/L NaCl, pH 7.5, Fig. 2G
T2 construct: HP1γ CSD (110–176aa) and TRIM66 PxVxL motif peptide(856–868aa), mixed at a molar ratio of 1:1.2; His6 (N); made in house
T2 sequence (Q13185 110-176 R171A): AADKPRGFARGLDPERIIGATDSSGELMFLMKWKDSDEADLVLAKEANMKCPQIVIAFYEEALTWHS
Description: as §1, §2

[5] = molecular target: T3, HP1γ-CSD^L172A (Homo sapiens, UniProt Q13185, L172A); assay: ITC, HP1γ-CSD L172A mutant; type: binding; details: 20 °C, 20 mmol/L Tris-HCl, 150 mmol/L NaCl, pH 7.5, Fig. 2F
T3 construct: HP1γ CSD (110–176aa) and TRIM66 PxVxL motif peptide(856–868aa), mixed at a molar ratio of 1:1.2; His6 (N); made in house
T3 sequence (Q13185 110-176 L172A): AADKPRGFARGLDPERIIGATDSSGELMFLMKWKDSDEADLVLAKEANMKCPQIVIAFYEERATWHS
Description: as §1, §2

[6] = molecular target: T4, HP1γ-CSD^I165A (Homo sapiens, UniProt Q13185, I165A); assay: ITC, HP1γ-CSD I165A mutant (monomeric); type: binding; details: 20 °C, 20 mmol/L Tris-HCl, 150 mmol/L NaCl, pH 7.5, Fig. 2F
T4 construct: HP1γ CSD (110–176aa) and TRIM66 PxVxL motif peptide(856–868aa), mixed at a molar ratio of 1:1.2; His6 (N); made in house
T4 sequence (Q13185 110-176 I165A): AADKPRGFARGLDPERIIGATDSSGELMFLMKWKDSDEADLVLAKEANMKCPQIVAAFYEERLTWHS
Description: as §1, §2

[7] = molecular target: T5, HP1γ-CSD^W174A (Homo sapiens, UniProt Q13185, W174A); assay: ITC, HP1γ-CSD W174A mutant; type: binding; details: 20 °C, 20 mmol/L Tris-HCl, 150 mmol/L NaCl, pH 7.5, Fig. 2F
T5 construct: HP1γ CSD (110–176aa) and TRIM66 PxVxL motif peptide(856–868aa), mixed at a molar ratio of 1:1.2; His6 (N); made in house
T5 sequence (Q13185 110-176 W174A): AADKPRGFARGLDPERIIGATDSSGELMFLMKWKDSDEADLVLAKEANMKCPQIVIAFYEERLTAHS
Description: as §1, §2

[8] = molecular target: T6, HP1γ-CSD^D131A (Homo sapiens, UniProt Q13185, D131A); assay: ITC, HP1γ-CSD D131A mutant; type: binding; details: 20 °C, 20 mmol/L Tris-HCl, 150 mmol/L NaCl, pH 7.5, Fig. 2G
T6 construct: HP1γ CSD (110–176aa) and TRIM66 PxVxL motif peptide(856–868aa), mixed at a molar ratio of 1:1.2; His6 (N); made in house
T6 sequence (Q13185 110-176 D131A): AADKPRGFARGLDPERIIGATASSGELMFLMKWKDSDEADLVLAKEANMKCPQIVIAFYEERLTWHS
Description: as §1, §2

[9] = test system: HP1γ and nuclear extract (NE); assay: GST pull-down assay; type: binding, human; details: glutathione-Sepharose, 20 mmol/L Tris, 150 mmol/L NaCl, 1 mmol/L DTT, pH 7.5, 6 h at 4 °C; SDS-PAGE and western blot
Description: The gene for human TRIM66 full-length (residues 1–1050) was purchased from Life Technologies. All the DNA fragments for the human TRIM66 (residues 820–909, 840–909) were amplified by PCR. The proteins were cloned into a modified pGEX4T-1vector with a GST tag and TEV protease cleavage site. The proteins were expressed in Escherichia coli BL21 (DE3) cells and induced with 0.5 mmol/L IPTG for 24 h at 16 °C. The protein was purified by GST column (Cytiva Life Sciences), followed by TEV protease cleavage and size-exclusion chromatography on a Hiload 16/60 Superdex 200 column (Cytiva Life Sciences).
Nuclear extracts (NEs) were prepared as described with slight modifications. HeLa cells (1 × 10^8 cells/mL) were suspended with 4 mL of Buffer A comprising 0.5 mmol/L EDTA, 2 mmol/L MgCl2, 0.1% (v/v) protease inhibitor (PI) (Nakalai Tesque, Japan), 2 mmol/L β-mercaptoethanol, 10 mmol/L Tris–HCl, pH 7.8, and centrifuged at 1500 g for 2 min at 4 °C. […] The concentrations of NEs were determined by DNA concentrations calculated from the absorbance at 260 nm.
The GST alone control, GST-tagged protein (TRIM66^820–909) was bound to glutathione-Sepharose beads (Cytiva Life Sciences) in a buffer of 20 mmol/L Tris, 200 mmol/L NaCl, and 1 mmol/L DTT at pH 7.5, and incubated at 4 °C for 4 h. […] The proteins captured by beads were eluted and analyzed by SDS-PAGE and western blot.

Molecule: OCCCCCCO [1,6-hexanediol]
effect on mEGFP-TRIM66 and mCherry-HP1γ condensates [1]: depolymerized and the fluorescence signal was evenly distributed in the entire nucleus

B1: GST-TRIM66^820-909: GST-tagged TRIM66 residues 820–909, which contains HP1γ-CSD binding motif (protein, UniProt O15016 820-909, looked up, fragment)
chain: NLISDSPQAMASLASDHPQAGPSLMSGHTQAVPSLATCPLQSIPPVSDMQPETGSSSSSGRTSGSLCPRDGADPSLENALCKMESEDSTR
modifications: GST tag
complex formation with HP1γ and NE (GST pull-down) [9]: can form stable complexes

Further lines, results first:

Kd [2]: 280 nM
stoichiometry N (HP1γ-CSD per TRIM66 peptide (2:1)) [2]: 2
Molecule: TRIM66 PxVxL motif peptide (residues 856-868)

Kd [3]: 280 ± 20 nM
Kd [4]: 2050 ± 38 nM
KD [5]: No binding
KD [6]: No binding
KD [7]: No binding
Kd [8]: 1360 ± 109 nM
Molecule: CC[C@H](C)[C@H](NC(=O)[C@H](CCCCN)NC(=O)[C@H](Cc1c[nH]cn1)NC(=O)[C@@H](N)CCC(=O)O)C(=O)N1CCC[C@H]1C(=O)N[C@@H](Cc1ccc(O)cc1)C(=O)N[C@H](C(=O)N[C@@H](CCCNC(=N)N)C(=O)N[C@@H](CC(C)C)C(=O)N[C@@H](CCC(=O)O)C(=O)N[C@@H](CCCNC(=N)N)C(=O)N[C@@H](CC(C)C)C(=O)N[C@@H](CCCCN)C(=O)O)C(C)C [TRIM66^856-868] (H-EHKIPYVRLERLK-OH)
